Source: patent publication US7348323B2, “Pyrrolo [2,3-c] pyridine derivatives” (Hoffmann-La Roche Inc., priority 2005, dated 2008)

Target: T1, histamine 3 receptor (H3R) (Homo sapiens, UniProt Q9Y5N1)
T1 construct: expressed in transfected cells; host or cells: CHO cells (HR3-CHO)
Test: Competition binding assay with 3H-(R)α-methylhistamine on membranes of the human HR3-CHO cell line
Details: membrane of the human HR3-CHO cell line; 3H(R)α-Methylhistamine 1 nM; Ki calculated from IC50 by Cheng-Prusoff equation
Experimental: Binding Assay with ^3H-(R)α-methylhistamine
Saturation binding experiments were performed using HR3-CHO membranes prepared as described in Takahashi, K, Tokita, S., Kotani, H. (2003) J. Pharmacol. Exp. Therapeutics 307, 213-218.
An appropriate amount of membrane (60 to 80 μg protein/well) was incubated with increasing concentrations of ^3H(R)α-Methylhistamine di-hydrochloride (0.10 to 10 nM). Non specific binding was determined using a 200 fold excess of cold (R)α-Methylhistamine dihydrobromide (500 nM final concentration). The incubation was carried out at room temperature (in deep-well plates shaking for three hours). The final volume in each well was 250 μl. The incubation was followed by rapid filtration on GF/B filters (pre-soaked with 100 μl of 0.5% PEI in Tris 50 mM shaking at 200 rpm for two hours). The filtration was made using a cell-harvester and the filter plates were then washed five times with ice cold washing buffer containing 0.5 M NaCl. After harvesting, the plates were dried at 55° C. for 60 min, then we added scintillation fluid (Microscint 40, 40 microl in each well) and the amount of radioactivity on the filter was determined in Packard top-counter after shaking the plates for two hours at 200 rpm at room temperature.
Binding Buffer: 50 mM Tris-HCl pH 7.4 and 5 mM MgCl2x6H2O pH 7.4. Washing Buffer: 50 mM Tris-HCl pH 7.4 and 5 mM MgCl2x6H2O and 0.5 M NaCl pH 7.4.
Indirect measurement of affinity of H3R inverse agonists: twelve increasing concentrations (ranging from 10 μM to 0.3 nM) of the selected compounds were always tested in competition binding experiments using membrane of the human HR3-CHO cell line. An appropriate amount of protein, e.g. approximately 500 cpm binding of RAMH at Kd, were incubated for 1 hour at room temperature in 250 μl final volume in 96-well plates in presence of ^3H(R)α-Methylhistamine (1 nM final concentration=Kd). […]
All compounds were tested at a single concentration in duplicates. […] Ki's were calculated from IC50 based on Cheng-Prusoff equation (Cheng, Y, Prusoff, W H (1973) Biochem Pharmacol 22, 3099-3108).

T1 sequence (Q9Y5N1 whole entry): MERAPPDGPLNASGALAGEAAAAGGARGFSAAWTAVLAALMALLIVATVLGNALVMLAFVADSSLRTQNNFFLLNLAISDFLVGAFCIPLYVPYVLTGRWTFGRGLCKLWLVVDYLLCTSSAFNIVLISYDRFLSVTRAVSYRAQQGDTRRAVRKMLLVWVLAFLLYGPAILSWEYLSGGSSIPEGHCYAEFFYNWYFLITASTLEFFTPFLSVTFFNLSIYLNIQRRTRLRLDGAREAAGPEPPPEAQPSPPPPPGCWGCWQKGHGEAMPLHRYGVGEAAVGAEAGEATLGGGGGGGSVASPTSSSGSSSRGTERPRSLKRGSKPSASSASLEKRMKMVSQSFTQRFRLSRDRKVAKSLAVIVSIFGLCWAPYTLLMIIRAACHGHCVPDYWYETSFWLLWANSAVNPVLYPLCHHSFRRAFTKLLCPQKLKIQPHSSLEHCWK

Ki | SMILES
33 nM | O=C(c1cc2cc(N3CCN(C4CCCC4)CC3)ncc2[nH]1)N1CCCC1 [Example 1, [5-(4-Cyclopentyl-piperazin-1-yl)-1H-pyrrolo[2,3-c]pyridin-2-yl]-pyrrolidin-1-yl-methanone]
27.4 nM | CCCNC(=O)c1cc2cc(N3CCN(C4CCCC4)CC3)ncc2[nH]1 [Example 13, 5-(4-cyclopentyl-piperazin-1-yl)-1H-pyrrolo[2,3-c]pyridine-2-carboxylic acid propylamide]
63.1 nM | CC(C)N1CCN(c2cc3cc(C(=O)N4CCC(F)(F)CC4)[nH]c3cn2)CC1 [Example 27, (4,4-difluoro-piperidin-1-yl)-[5-(4-isopropyl-piperazin-1-yl)-1H-pyrrolo[2,3-c]pyridin-2-yl]-methanone]
